In patent publication US11000033B2, “Ketone or oxime compound, and herbicide” (NISSAN CHEMICAL CORPORATION, priority 2014, dated 2021):

Experiments:
Format in all cases: in vivo
rice plant = assay: Test Example 5: effect on crop by foliage application, plastic box (symbol b); settings: 320 g/ha, 3 weeks after application
Outline: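 Seeds were sown in spots in sterilized diluvial soil held in a plastic box 21 cm × 13 cm × 7 cm deep, covered with about 1.5 cm of soil, and grown in a greenhouse at 25° C. to 30° C.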

Lolium multiflorum Lam. = assay: Test Example 4: herbicidal effect by soil treatment (symbol K); settings: 320 g/ha
Outline: (§1)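 Seeds were sown in sterilized diluvial soil, covered with about 1.5 cm of soil, and the soil surface was sprayed with a water-diluted emulsion of the compound at a predetermined rate. Plants grew in a greenhouse at 25° C. to 30° C.; effects were scored visually 3 weeks after application.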

Digitaria ciliaris = assay: Test Example 4: herbicidal effect by soil treatment (symbol F); settings: 320 g/ha
Outline: as §1

Setaria viridis = assay: Test Example 4: herbicidal effect by soil treatment (symbol G); settings: 320 g/ha
Outline: as §1

Alopecurus myosuroides [1] = assay: Test Example 5: herbicidal effect by foliage application, plastic box (symbol J); settings: 320 g/ha, 3 weeks after application
Outline: (§2)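 After sowing into sterilized diluvial soil and growing two weeks under glass at 25° C. to 30° C., seedlings receive a uniform foliar spray of diluted emulsion. Damage is judged visually three weeks on.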

Leptochloa chinensis = assay: Test Example 3: herbicidal effect by foliage application, Wagner pot (symbol D); settings: application herbicide amount 320 g/ha
Outline: (§3)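 Weeds and rice were sown in alluvial soil under 0.1–0.5 cm of standing water and grown for 14 days in a 25–30 °C greenhouse. An emulsion of the compound, diluted in water to a set dose, was sprayed evenly onto the foliage. Effect was scored against fixed criteria 3 weeks after treatment.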

Chenopodium album = assay: Test Example 5: herbicidal effect by foliage application, plastic box (symbol O); settings: 320 g/ha, 3 weeks after application
Outline: as §2

Avena fatua = assay: Test Example 4: herbicidal effect by soil treatment (symbol I); settings: 320 g/ha
Outline: as §1

Stellaria media [2] = assay: Test Example 5: herbicidal effect by foliage application, plastic box (symbol P); settings: 320 g/ha, 3 weeks after application
Outline: as §2

Scirpus juncoides = assay: Test Example 2: herbicidal activity, application during weed generation in submerged conditions (symbol B); settings: Table 23; application herbicide amount 320 g/ha; grade 0-5 by criteria of Test Example 1
Outline: (§4)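 Alluvial soil in pots was flooded to a 4 cm water depth and sown with a mix of the three weed species, then grown in a greenhouse at 25° C. to 30° C. At the one- to two-leaf stage, an emulsifiable formulation diluted in water to a set dose was applied to the water surface. Effects were scored visually 3 weeks later.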

wheat = assay: Test Example 4: effect on crop by soil treatment (symbol e); settings: 320 g/ha
Outline: (§5)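 Greenhouse culture at 25° C. to 30° C. followed sowing of seed in spots on sterilized diluvial soil with a soil cover close to 1.5 cm thick.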

rice = assay: Test Example 4: effect on crop by soil treatment (symbol b); settings: 320 g/ha
Outline: as §5

[3] = system: Echinochloa crus-galli var. crus-galli; assay: Test Example 3: herbicidal effect by foliage application, Wagner pot (symbol H); settings: application herbicide amount 320 g/ha
Outline: as §3

Amaranthus retroflexus = assay: Test Example 5: herbicidal effect by foliage application, plastic box (symbol N); settings: 320 g/ha, 3 weeks after application
Outline: as §2

[4] = system: Echinochloa crus-galli var. crus-galli; assay: Test Example 5: herbicidal effect by foliage application, plastic box (symbol H); settings: 320 g/ha, 3 weeks after application
Outline: as §2

[5] = system: Echinochloa oryzacola Vasing.; assay: Test Example 2: herbicidal activity, application during weed generation in submerged conditions (symbol A); settings: Table 23; application herbicide amount 320 g/ha; grade 0-5 by criteria of Test Example 1
Outline: as §4

Monochoria vaginalis = assay: Test Example 2: herbicidal activity, application during weed generation in submerged conditions (symbol C); settings: Table 23; application herbicide amount 320 g/ha; grade 0-5 by criteria of Test Example 1
Outline: as §4

Stellaria media [6] = assay: Test Example 4: herbicidal effect by soil treatment (symbol P); settings: 320 g/ha
Outline: as §1

Alopecurus myosuroides [7] = assay: Test Example 4: herbicidal effect by soil treatment (symbol J); settings: 320 g/ha
Outline: as §1

Veronica persica = assay: Test Example 4: herbicidal effect by soil treatment (symbol R); settings: 320 g/ha
Outline: as §1

Row | Compound | b: directly sowed rice plant, effect on crop (criteria 0-5) (rice plant) | K: Lolium multiflorum Lam., herbicidal effect grade (Lolium multiflorum Lam.) | F: Digitaria ciliaris, herbicidal effect grade (Digitaria ciliaris) | G: Setaria viridis, herbicidal effect grade (Setaria viridis) | J: Alopecurus myosuroides, herbicidal effect (criteria 0-5) (Alopecurus myosuroides [1]) | herbicidal effect on D (Leptochloa chinensis), grade 0-5 (Leptochloa chinensis) | O: Chenopodium album, herbicidal effect (criteria 0-5) (Chenopodium album) | I: Avena fatua, herbicidal effect grade (Avena fatua) | P: Stellaria media, herbicidal effect (criteria 0-5) (Stellaria media [2]) | Herbicidal effect grade, B: Scirpus juncoides (Scirpus juncoides) | e: wheat, effect grade on crop (wheat) | b: directly sowed rice plant, effect grade on crop (rice) | herbicidal effect on H (Echinochloa crus-galli var. crus-galli), grade 0-5 [3] | N: Amaranthus retroflexus, herbicidal effect (criteria 0-5) (Amaranthus retroflexus) | H: Echinochloa crus-galli var. crus-galli, herbicidal effect (criteria 0-5) [4] | Herbicidal effect grade, A: Echinochloa oryzacola Vasing. [5] | Herbicidal effect grade, C: Monochoria vaginalis (Monochoria vaginalis) | P: Stellaria media, herbicidal effect grade (Stellaria media [6]) | J: Alopecurus myosuroides, herbicidal effect grade (Alopecurus myosuroides [7]) | R: Veronica persica, herbicidal effect grade (Veronica persica)
1 | CC(CC1CC(O)=C(c2c(C)cc(C)cc2C)C1=O)=NOCc1cccc(C(F)(F)F)c1 (stereo not drawn) [1-117] | 5 (Herbicidal ratio of 90% or more (almost completely withered)) | 4 (Herbicidal ratio of 70% or higher and lower than 90%) | 4 (Herbicidal ratio of 70% or higher and lower than 90%) | 5 (Herbicidal ratio of 90% or more (almost completely withered)) | 5 (Herbicidal ratio of 90% or more (almost completely withered)) | 4 (Herbicidal ratio of 70% or higher and lower than 90%) | 0 (Herbicidal ratio of 5% or lower (almost no effect)) | 0 (Herbicidal ratio of 5% or lower (almost no effect)) | 3 (Herbicidal ratio of 40% or higher and lower than 70%) | 3 (Herbicidal ratio of 40% or higher and lower than 70%) | 0 (Herbicidal ratio of 5% or lower (almost no effect)) | 5 (Herbicidal ratio of 90% or more (almost completely withered)) | 5 (Herbicidal ratio of 90% or more (almost completely withered)) | 1 (Herbicidal ratio of 5% or higher and lower than 20%) | 5 (Herbicidal ratio of 90% or more (almost completely withered)) | 4 (Herbicidal ratio of 70% or higher and lower than 90%) | 3 (Herbicidal ratio of 40% or higher and lower than 70%) | 0 (Herbicidal ratio of 5% or lower (almost no effect)) | 4 (Herbicidal ratio of 70% or higher and lower than 90%) | 0 (Herbicidal ratio of 5% or lower (almost no effect))
2 | CC(CC1CC(O)=C(c2c(C)cc(C)cc2C)C1=O)=NOCC(C)Cl (stereo not drawn) [1-121] | 5 (Herbicidal ratio of 90% or more (almost completely withered)) | 5 (Herbicidal ratio of 90% or more (almost completely withered)) | 5 (Herbicidal ratio of 90% or more (almost completely withered)) | 5 (Herbicidal ratio of 90% or more (almost completely withered)) | 5 (Herbicidal ratio of 90% or more (almost completely withered)) | 5 (Herbicidal ratio of 90% or more (almost completely withered)) | 3 (Herbicidal ratio of 40% or higher and lower than 70%) | 1 (Herbicidal ratio of 5% or higher and lower than 20%) | 2 (Herbicidal ratio of 20% or higher and lower than 40%) | 4 (Herbicidal ratio of 70% or higher and lower than 90%) | 0 (Herbicidal ratio of 5% or lower (almost no effect)) | 5 (Herbicidal ratio of 90% or more (almost completely withered)) | 5 (Herbicidal ratio of 90% or more (almost completely withered)) | 0 (Herbicidal ratio of 5% or lower (almost no effect)) | 5 (Herbicidal ratio of 90% or more (almost completely withered)) | 5 (Herbicidal ratio of 90% or more (almost completely withered)) | 1 (Herbicidal ratio of 5% or higher and lower than 20%) | 0 (Herbicidal ratio of 5% or lower (almost no effect)) | 5 (Herbicidal ratio of 90% or more (almost completely withered)) | 0 (Herbicidal ratio of 5% or lower (almost no effect))
3 | CON=C(C)CC1CC(OS(=O)(=O)N(C)C)=C(c2c(C)cc(C)cc2C)C1=O (stereo not drawn) [1-122] | 5 (Herbicidal ratio of 90% or more (almost completely withered)) | 5 (Herbicidal ratio of 90% or more (almost completely withered)) | 2 (Herbicidal ratio of 20% or higher and lower than 40%) | 3 (Herbicidal ratio of 40% or higher and lower than 70%) | 5 (Herbicidal ratio of 90% or more (almost completely withered)) | 5 (Herbicidal ratio of 90% or more (almost completely withered)) | 0 (Herbicidal ratio of 5% or lower (almost no effect)) | 2 (Herbicidal ratio of 20% or higher and lower than 40%) | 1 (Herbicidal ratio of 5% or higher and lower than 20%) | 5 (Herbicidal ratio of 90% or more (almost completely withered)) | 0 (Herbicidal ratio of 5% or lower (almost no effect)) | 4 (Herbicidal ratio of 70% or higher and lower than 90%) | 5 (Herbicidal ratio of 90% or more (almost completely withered)) | 1 (Herbicidal ratio of 5% or higher and lower than 20%) | 5 (Herbicidal ratio of 90% or more (almost completely withered)) | 5 (Herbicidal ratio of 90% or more (almost completely withered)) | 0 (Herbicidal ratio of 5% or lower (almost no effect)) | 0 (Herbicidal ratio of 5% or lower (almost no effect)) | 5 (Herbicidal ratio of 90% or more (almost completely withered)) | 0 (Herbicidal ratio of 5% or lower (almost no effect))
